Test results reported in ChEMBL document CHEMBL1687789, “Characteristics and dissemination of mosaic penicillin-binding protein 2-harboring multidrug-resistant Neisseria gonorrhoeae isolates with reduced cephalosporin susceptibility in northern Taiwan” (2010).
≈ marks a conversion by molar mass, not a printed value.

Key:
Format in all cases: functional
Neisseria gonorrhoeae [1] = assay: Antimicrobial activity against multidrug-resistant Neisseria gonorrhoeae isolates harboring mosaic penicillin-binding protein 2 penA by Etest
Neisseria gonorrhoeae [2] = assay: Antimicrobial activity against Neisseria gonorrhoeae isolates harboring non-mosaic penicillin-binding protein 2 penA by Etest
Neisseria gonorrhoeae [3] = assay: Antimicrobial activity against multidrug-resistant Neisseria gonorrhoeae isolates by Etest
Neisseria gonorrhoeae [4] = assay: Antimicrobial activity against multidrug-resistant Neisseria gonorrhoeae isolates assessed as resistant isolates by disk susceptibility test
Neisseria gonorrhoeae [5] = assay: Antimicrobial activity against multidrug-resistant Neisseria gonorrhoeae isolates harboring mosaic penicillin-binding protein 2 penA assessed as resistant isolates by disk susceptibility test
Neisseria gonorrhoeae [6] = assay: Antimicrobial activity against Neisseria gonorrhoeae isolates harboring non-mosaic penicillin-binding protein 2 penA assessed as resistant isolates by disk susceptibility test

Row | Compound | MIC (Neisseria gonorrhoeae [1]) | MIC (Neisseria gonorrhoeae [2]) | MIC (Neisseria gonorrhoeae [3]) | Activity (Neisseria gonorrhoeae [4]) | Activity (Neisseria gonorrhoeae [5]) | Activity (Neisseria gonorrhoeae [6])
1 | C=CC1=C(C(=O)O)N2C(=O)[C@@H](NC(=O)/C(=N\OCC(=O)O)c3csc(N)n3)[C@H]2SC1 [CEFIXIME] | 0.125 µg/mL (≈ 0.276 µM) | 0.016 µg/mL (≈ 0.0353 µM) | 0.016 µg/mL (≈ 0.0353 µM) |  |  | 
2 | CO/N=C(\C(=O)N[C@@H]1C(=O)N2C(C(=O)O)=C(CSc3nc(=O)c(O)nn3C)CS[C@H]12)c1csc(N)n1 [CEFTRIAXONE] | 0.023 µg/mL (≈ 0.0415 µM) | 0.002 µg/mL (≈ 0.00361 µM) | 0.002 µg/mL (≈ 0.00361 µM) |  |  | 
3 | O=C(O)c1cn(C2CC2)c2cc(N3CCNCC3)c(F)cc2c1=O [CIPROFLOXACIN] |  |  |  | 88.6% | 100% | 84.3%
4 | CC1(C)S[C@@H]2[C@H](NC(=O)Cc3ccccc3)C(=O)N2[C@H]1C(=O)O [PENICILLIN G] |  |  |  | 62.2% | 71% | 58.9%
